Assay results as given in patent US9120749B2, “Quinoline derivatives and MELK inhibitors containing the same” (ONCOTHERAPY SCIENCE, INC., priority 2010, dated 2015).
Structures can show the parent of a compound that is named as a salt. Where two headings read alike, the source gives them in different places.

Experiments:
T47D cells = assay: Cell-based assay: anti-proliferative activity, Cell Counting Kit-8, 72 hours (T47D)
Outline: (§1)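 Target-specific cytotoxicity: seeded cells treated with MELK inhibitor candidates for 72 h, proliferation quantified via CCK-8, IC50 fitted.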

A549 cells = assay: Cell-based assay: anti-proliferative activity, Cell Counting Kit-8, 72 hours (A549); conditions: 72 hours
Outline: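 A549 cells seeded in 96-well plates and exposed to candidate inhibitors for 72 hours. Growth measured with Cell Counting Kit-8; IC50 values calculated from the dose response.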

HT-1197 cells = assay: Cell-based assay: anti-proliferative activity, Cell Counting Kit-8, 72 hours (HT-1197, negative control without MELK expression); conditions: Homo sapiens, HT1197, 72 h, 72 hours
Outline: as §1

22Rv1 cells = assay: Cell-based assay: anti-proliferative activity, Cell Counting Kit-8, 72 hours (22Rv1); conditions: Homo sapiens
DU4475 cells = assay: Cell-based assay: anti-proliferative activity, Cell Counting Kit-8, 72 hours (DU4475); conditions: Homo sapiens, DU-4475
MELK = MELK (Homo sapiens, UniProt Q14680); assay: Kinase assay: MELK activity, phosphorylation of FITC-labeled histone H3 peptide measured by IMAP fluorescence polarization; type: biochemical; conditions: read-out: IC50 (μM) (kinase assay)
Outline: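 Polarization of fluorescence served as the signal for MELK turnover of FITC-conjugated histone H3 peptide. Binding solution quenched each reaction, and plates stood 0.5 hour at room temperature before reading.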

DU4475 = assay: Cell-based assay: anti-proliferative activity, Cell Counting Kit-8, 72 hours (DU4475); conditions: Homo sapiens, DU-4475, DU4475 cells
[1] = HT1197 cells (negative control)
[2] = MELK kinase assay, IMAP fluorescence polarization, 50 micro-M ATP
[3] = HT1197 cells (negative control, no MELK expression)
[4] = 50 micro-M ATP, FITC-labeled histone H3 peptide substrate, IMAP fluorescence polarization

Chain of MELK (Q14680 whole entry, looked up): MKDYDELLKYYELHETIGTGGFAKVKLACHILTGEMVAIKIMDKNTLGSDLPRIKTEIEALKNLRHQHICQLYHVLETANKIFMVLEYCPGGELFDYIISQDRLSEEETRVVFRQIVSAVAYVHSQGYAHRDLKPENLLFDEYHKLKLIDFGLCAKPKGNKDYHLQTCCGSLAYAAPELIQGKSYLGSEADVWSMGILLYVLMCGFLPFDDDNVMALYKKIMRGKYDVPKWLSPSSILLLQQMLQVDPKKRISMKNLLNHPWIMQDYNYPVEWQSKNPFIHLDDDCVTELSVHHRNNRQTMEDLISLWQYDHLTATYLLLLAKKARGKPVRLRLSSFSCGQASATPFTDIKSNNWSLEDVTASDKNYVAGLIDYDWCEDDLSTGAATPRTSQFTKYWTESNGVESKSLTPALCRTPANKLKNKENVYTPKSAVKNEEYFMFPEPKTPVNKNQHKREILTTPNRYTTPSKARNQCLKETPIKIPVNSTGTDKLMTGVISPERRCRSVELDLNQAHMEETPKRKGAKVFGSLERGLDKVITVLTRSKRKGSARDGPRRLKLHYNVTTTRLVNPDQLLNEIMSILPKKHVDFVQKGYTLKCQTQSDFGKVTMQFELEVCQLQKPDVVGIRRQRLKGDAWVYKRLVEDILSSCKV

| IC50 (22Rv1 cells) | Structure (SMILES) | IC50 (T47D cells; Homo sapiens, T47D, 72 h) | IC50 (A549 cells; Homo sapiens, A549, 72 h) | IC50 (HT-1197 cells; [1]) | IC50 (DU4475 cells) | IC50 (MELK; [2]) | IC50 (MELK) | IC50 (HT-1197 cells; [3]) | IC50 (DU4475) | IC50 (T47D cells; 72 hours) | IC50 (A549 cells) | IC50 (MELK; [4]) |
| --- | --- | --- | --- | --- | --- | --- | --- | --- | --- | --- | --- | --- |
| 0.91 µM | CN(C)C[C@H]1CC[C@H](Nc2c(C(=O)C3CCCC3)cnc3ccc(-c4cc(Cl)c(O)c(Cl)c4)cc23)CC1 [Example 917, cyclopentyl(6-(3,5-dichloro-4-hydroxy-phenyl)-4-((1R,4R)-4-((dimethyl-amino)methyl)cyclohexyl)amino) quinolin-3-yl)methanone hydrochloride] | 0.7 µM | 0.68 µM | 3.3 µM | 0.19 µM | – | – | – | – | – | – | – |
| – | CC(=O)c1cnc2ccc(-c3cc(Cl)c(O)c(Cl)c3)cc2c1Nc1ccc(S(=O)(=O)N2CCN(C)CC2)cc1 [Example 887, 1-(6-(3,5-dichloro-4-hydroxyphenyl)-4-((4-((4-methylpiperazin-1-yl)sulfonyl)phenyl)amino)quinolin-3-yl)ethanone hydrochloride] | 1.3 µM | 100 µM | 100 µM | 100 µM | – | – | – | – | – | – | – |
| – | CC(=O)c1cnc2ccc(-c3cc(F)c(O)c(Cl)c3)cc2c1Nc1ccc(S(=O)(=O)N2CCN(C)CC2)cc1 [Example 894, 1-(6-(3-chloro-5-fluoro-4-hydroxy-phenyl)-4-((4-((4-methylpiperazin-1-yl)sulfonyl)phenyl)amino)quinolin-3-yl)ethanone hydrochloride] | 1.5 µM | 100 µM | 63 µM | 100 µM | 0.039 µM | – | – | – | – | – | – |
| 0.65 µM | CC(=O)c1cnc2ccc(-c3cc(Cl)c(O)c(Cl)c3)cc2c1N[C@H]1CC[C@H](NC(=O)[C@@H](N)C(C)(C)C)CC1 [Example 922, (S)-N-((1r,4S)-4-((3-acetyl-6-(3,5-dichloro-4-hydroxyphenyl)quinolin-4-yl)amino)cyclohexyl)-2-amino-3,3-dimethylbutanamide hydrochloride] | 0.2 µM | 0.62 µM | 4.5 µM | 0.21 µM | – | – | – | – | – | – | – |
| 1.5 µM | CS(=O)(=O)c1cnc2ccc(-c3cc(Cl)c(O)c(Cl)c3)cc2c1Nc1cccc(CCN2CCCC2)c1 [Example 883, 2,6-dichloro-4-(3-(methylsulfonyl)-4-((3-(2-(pyrrolidin-1-yl)ethyl)phenyl)amino)quinolin-6-yl)phenol hydrochloride] | 1.4 µM | 1.9 µM | 100 µM | 0.53 µM | – | – | – | – | – | – | – |
| 0.94 µM | CS(=O)(=O)c1cnc2ccc(-c3cc(Cl)c(O)c(Cl)c3)cc2c1N[C@H]1CC[C@H](CN2CCCC2)CC1 [Example 890, 2,6-dichloro-4-(3-(methylsulfonyl)-4-((1R,4R)-4-(pyrrolidin-1-ylmethyl)cyclohexyl)amino)quinolin-6-yl) phenol hydrochloride] | 1.3 µM | 1.1 µM | 3 µM | 0.35 µM | – | – | – | – | – | – | – |
| 6.6 µM | CN(C)C[C@H]1CC[C@H](Nc2c(C(=O)C(C)(C)C)cnc3ccc(-c4cc(Cl)c(O)c(Cl)c4)cc23)CC1 [Example 918, 1-(6-(3,5-dichloro-4-hydroxyphenyl)-4-((1R,4R)-4-((dimethylamino)methyl)cyclohexyl)amino)quinolin-3-yl)-2,2-dimethylpropan-1-one hydrochloride] | 3 µM | 5.5 µM | 10 µM | 3.2 µM | – | – | – | – | – | – | – |
| 0.3 µM | CCN(CC)CCO[C@H]1CC[C@H](Nc2c(C(C)=O)cnc3ccc(-c4cc(Cl)c(O)c(Cl)c4)cc23)CC1 [Example 868, 1-(6-(3,5-dichloro-4-hydroxyphenyl)-4-((1R,4R)-4-(2-(diethylamino)ethoxy)cyclohexyl)amino)quinolin-3-yl)ethanone hydrochloride] | 0.14 µM | 0.28 µM | 2.8 µM | 0.29 µM | – | – | – | – | – | – | – |
| – | CC(=O)c1cnc2ccc(-c3cc(Cl)c(O)c(Cl)c3)cc2c1Nc1cncc(CCN2CCCC2)c1 [Example 873, 1-(6-(3,5-dichloro-4-hydroxyphenyl)-4-((5-(2-(pyrrolidin-1-yl)ethyl)pyridin-3-yl)amino)quinolin-3-yl)ethanone hydrochloride] | 100 µM | 0.35 µM | 100 µM | 0.17 µM | 0.0067 µM | – | – | – | – | – | – |
| – | O=C(c1cnc2ccc(-c3cc(Cl)c(O)c(Cl)c3)cc2c1Nc1cncc(CCN2CCCC2)c1)C1CC1 [Example 881, cyclopropyl(6-(3,5-dichloro-4-hydroxyphenyl)-4-((5-(2-(pyrrolidin-1-yl)ethyl)pyridin-3-yl)amino)quinolin-3-yl)methanone] | 100 µM | 0.15 µM | 100 µM | 0.078 µM | 0.0064 µM | – | – | – | – | – | – |
| 14 µM | CC(=O)c1cnc2cc(C)c(-c3cc(Cl)c(O)c(Cl)c3)cc2c1N[C@H]1CC[C@H](CN2CCC(N)C2)CC1 (stereo partly drawn) [Example 872, 1-(4-((1R,4R)-4-((3-aminopyrrolidin-1-yl)methyl)cyclohexyl)amino)-6-(3,5-dichloro-4-hydroxyphenyl)-7-methylquinolin-3-yl)ethanone hydrochloride] | 17 µM | 100 µM | 100 µM | 0.26 µM | – | – | – | – | – | – | – |
| – | COc1cc(-c2ccc3ncc([S+](C)[O-])c(N4CCC(CN(C)C)CC4)c3c2)cc(Cl)c1O (stereo not drawn) [Example 468] | 0.93 µM | 1.4 µM | – | – | – | 0.0051 µM | 9.2 µM | 0.93 µM | – | – | – |
| 2 µM | CC(N)C(=O)N[C@H]1CC[C@H](Nc2c(C(=O)C(C)(C)C)cnc3ccc(-c4cc(Cl)c(O)c(Cl)c4)cc23)CC1 (stereo partly drawn) [Example 928, 2-amino-N-((1R,4R)-4-((6-(3,5-dichloro-4-hydroxyphenyl)-3-pivaloyl-quinolin-4-yl)amino)cyclohexyl) propanamide hydrochloride] | 1.4 µM | 4.1 µM | 8.1 µM | 1.1 µM | – | – | – | – | – | – | – |
| – | CC(=O)c1cnc2ccc(-c3cc(F)c(O)c(Cl)c3)cc2c1Nc1ccc(N2CCN(C)CC2)nc1 [Example 487, 1-(6-(3-Chloro-5-fluoro-4-hydroxyphenyl)-4-(6-(4-methylpiperazin-1-yl)pyridin-3-ylamino)quinolin-3-yl)ethanone] | – | – | – | – | – | 0.01 µM | 1.4 µM | 0.1 µM | 0.041 µM | 0.088 µM | – |
| – | CCOc1cc(-c2ccc3ncc(C(C)=O)c(N[C@H]4CC[C@H](N)CC4)c3c2)cc(Cl)c1O [Example 486] | 0.15 µM | 0.11 µM | – | – | – | 0.0021 µM | 2.2 µM | 0.13 µM | – | – | – |
| – | CN1CCN(c2ccc(Nc3c(C(=O)C4CC4)cnc4ccc(-c5cc(F)c(O)c(Cl)c5)cc34)cn2)CC1 [Example 471] | 0.14 µM | 0.21 µM | – | – | – | 0.011 µM | 2.8 µM | 0.14 µM | – | – | – |
| – | COc1cc(-c2ccc3ncc(C(=O)C4CC4)c(-c4ccc(N5CCN(C)CC5)cc4)c3c2)cc(Cl)c1O [Example 438, (6-(3-chloro-4-hydroxy-5-methoxyphenyl)-4-(4-(4-methylpiperazin-1-yl)phenyl)quinolin-3-yl)(cyclopropyl)methanone] | 0.39 µM | 0.25 µM | – | – | – | – | 6.5 µM | 0.49 µM | – | – | 0.018 µM |
| – | COc1cc(-c2ccc3ncc(C(=O)C4CC4)c(N[C@H]4CC[C@H](CN)CC4)c3c2)cc(Cl)c1O [Example 493, {4-[trans-4-(Aminomethyl)cyclohexylamino]-6-(3-chloro-4-hydroxy-5-methoxyphenyl)quinolin-3-yl}(cyclopropyl)methanone] | 0.078 µM | 0.095 µM | – | – | – | 0.003 µM | 0.82 µM | 0.068 µM | – | – | – |
| – | C[S+]([O-])c1cnc2ccc(-c3cc(Cl)c(O)c(Cl)c3)cc2c1N[C@H]1CC[C@H](N)CC1 (stereo partly drawn) [Example 491] | 7 µM | 10 µM | – | – | – | 0.0075 µM | 10 µM | 2.9 µM | – | – | – |
| – | COc1cc(-c2ccc3ncc(C(=O)C4CC4)c(Nc4ccc(N5CCN(C)CC5)nc4)c3c2)cc(Cl)c1O [Example 470] | 0.26 µM | 0.56 µM | – | – | – | 0.015 µM | 2.2 µM | 0.68 µM | – | – | – |
| – | COc1cc(-c2ccc3ncc(C(=O)C4CC4)c(Nc4ccc(Cn5ccnc5)cc4)c3c2)cc(Cl)c1O [Example 490, (4-(4-((1H-imidazol-1-yl)methyl)phenylamino)-6-(3-chloro-4-hydroxy-5-methoxyphenyl)quinolin-3-yl)(cyclopropyl)methanone] | 0.78 µM | 0.68 µM | – | – | – | 0.014 µM | 5.8 µM | 0.86 µM | – | – | – |
| – | COc1cc(-c2ccc3ncc(C(=O)C4CC4)c(Nc4ccc(CN5CCOCC5)cc4)c3c2)cc(Cl)c1O [Example 462] | 0.44 µM | 0.7 µM | – | – | – | – | 6 µM | 1.1 µM | – | – | 0.066 µM |
| – | COc1cc(-c2ccc3ncc(C(C)=O)c(Nc4ccc(N5CCN(C)CC5)nc4)c3c2)cc(Cl)c1O [Example 483, 1-(6-(3-chloro-4-hydroxy-5-methoxyphenyl)-4-(6-(4-methylpiperazin-1-yl)pyridin-3-ylamino)quinolin-3-yl)ethanone] | 0.64 µM | 0.64 µM | – | – | – | 0.016 µM | 0.89 µM | 0.69 µM | – | – | – |
